Data as given in patent US20040121474A1, “Detection and evaluation of chemically-mediated and ligand-mediated t-cell activation using optophoretic analysis” (Genoptix, Inc, priority 2002, published 2004).
Converted amounts (≈) assume the structure as drawn.

Legend:
Format in all cases: cell-based
[1] = tested on: U937 cells; assay: Escape velocity, time and concentration dependence of PMA; set-up: Escape velocity Ave.: unit not given here
Method: This experiment was conducted to test the effect of PMA concentration on the escape velocity of U937 cells. PMA concentrations of 10 ng/ml, 1 ng/ml, 100 pg/ml, 10 pg/ml and 1 pg/ml were tested. The control sample received EtOH and not PMA.
The PMA concentration was tested at three timepoints: 1 hour, 3 hours and 5 hours. At each timepoint, 300 μl of cells were removed from each flask. The cells were then spun for 5 minutes at 5000 rpm. The cells were then resuspended in […] PBS/1% BSA and […] of trypan blue.

[2] = tested on: U937 cells; assay: Escape velocity of PMA-treated U937 cells, time course
Method: PMA was dissolved in ethanol at a concentration of 5 mg/mL. 3 mls of U937 cells grown in RPMI 1640 media with supplements were removed from the culture flask and 1 ml was placed into each of three eppendorf tubes. Cells from the first tube were pelleted for 4 minutes at 10,000 rpm and resuspended in 250 uL PBS/1% BSA buffer for escape velocity measurements. […] These tubes were vortexed and placed in a 37° C. water bath for either one hour or six hours. At the end of the time point, the tube was removed, cells were pelleted and then resuspended as described above and escape velocity measurements taken.
The preferred method of performing cellular interrogation is through optical interrogation which includes determining the optophoretic properties of the cell(s). The optophoretic properties of the cell(s) can be determined in any number of ways. In one preferred embodiment, the escape velocity of cell(s) is used to determine the optophoretic properties. The escape velocity (measured typically in μm/sec) is defined as the minimum speed at which an interrogated cell no longer tracks the moving optical gradient.
The objective of this experiment is to compare the escape velocities of U937 cells that have been treated with the phorbol ester, phorbol 12 myristate 13-acetate (PMA), to the escape velocity of untreated U937 cells. PMA activates the Protein Kinase C pathway and may cause the cells to go into rapid cell differentiation, which may be indicated by a shift in escape velocity. The effect of PMA activation was tested at three timepoints: no activation, 1 hour of activation, and 6 hours of activation. At the end of the activation period, the cells were centrifuged for 4 minutes at 10,000 rpm. […] The cells were then centrifuged again and resuspended in buffer. The escape velocity and the cell size of cells from each tube were then calculated.

[3] = tested on: HL-60 cells; assay: Escape velocity, differentiation of HL-60 cells; conditions: 200 ng/ml PMA
Method: Initial tests were performed using HL-60 cells treated with PMA. HL-60 cells were seeded at about 1-3×10^6 cells per well in six well plates. The cells were treated with 200 ng/ml PMA while the control cells were treated with ethanol (EtOH) vehicle for four hours at 37° C. After incubation for four hours the treated cells were washed with PBS and re-fed with growth media. The treated HL-60 cells were then allowed to differentiate for 72 hours in normal growth media. After the 72 hour period, the untreated control cells were collected by centrifugation, washed with PBS and pelleted for resuspension at 1.5×10^6 cells/ml in PBS/1% BSA. Treated cells were trypsinized and collected by centrifugation then washed in PBS and pelleted for resuspension at 1×10^6 cells/ml in PBS/1% BSA. The cells were then subjected to Optophoretic analysis by measuring the escape velocities of the treated and control cells. Table 23 shown below illustrates the measured escape velocities of the undifferentiated and differentiated cells at 72 hours post treatment.

[4] = tested on: U937 cells; assay: Quantitative determination of PKC activation, escape velocity dose response; conditions: five hours
Method: Optophoretic analysis was used to develop a full dose response curve for U937 cells treated with PMA. U937 cells were incubated with varying amounts of PMA dissolved in DMSO. The following concentrations of PMA were tested: 0.156 ng/ml, 0.312 ng/ml, 0.625 ng/ml, 1.25 ng/ml, 2.5 ng/ml, 5 ng/ml, and no PMA (control). […] Escape velocity measurements were then taken using a 100 mW laser having a beam diameter of 28 pixels. Table 9 reproduced below sets forth the measured escape velocities (μm/sec) for each of the various PMA concentrations.
The method described above may be used to quantitatively determine the level of PKC activation in cells in response to exposure to PKC activating compound using a moving optical gradient. The method includes the steps of first providing a series of cell samples and exposing the series of cell samples to different concentrations of the PKC activating compound. After a period of incubation from about one to several hours, the cells and the optical gradient are moved relative to each other so as to cause displacement of at least some of the cells. Next, the displacement of at least a portion of the displaced cells is measured for each of the different concentrations. […] From the dose response curve, one is able to calculate one or more numerical values that correlate to PKC potency and/or efficacy. For example, the dose response curve can be used to calculate the EC50, Hill slope, or plateau value relative to a standard compound.

For `CCCCCCCCCCCCCC(=O)O[C@@H]1[C@@H](C)[C@@]2(O)[C@@H](C=C(CO)C[C@]3(O)C(=O)C(C)=C[C@@H]23)[C@@H]2C(C)(C)[C@]12OC(C)=O` [PMA, phorbol 12 myristate 13-acetate], the “Escape velocity Ave.” value ([1]; 10 pg/ml PMA, 1 Hour Activation) was 14.4, the “Escape velocity Ave.” value ([1]; 10 pg/ml PMA, 3 Hour Activation) was 14.5 and the “Escape velocity Ave.” value ([1]; 10 pg/ml PMA, 5 Hour Activation) was 14.1. For the same compound, the “Escape velocity Ave.” value ([1]; 100 pg/ml PMA, 1 Hour Activation) was 14.4, the “Escape velocity Ave.” value ([1]; 100 pg/ml PMA, 3 Hour Activation) was 15.5 and the “Escape velocity Ave.” value ([1]; 100 pg/ml PMA, 5 Hour Activation) was 16.1. The “Escape velocity Ave.” value ([1]; 1 ng/ml PMA, 1 Hour Activation) was 14.3, the “Escape velocity Ave.” value ([1]; 1 ng/ml PMA, 3 Hour Activation) was 15.1 and the “Escape velocity Ave.” value ([1]; 1 ng/ml PMA, 5 Hour Activation) was 16.5. The “Escape velocity Ave.” value ([1]; 10 ng/ml PMA, 1 Hour Activation) was 14.8, the “Escape velocity Ave.” value ([1]; 10 ng/ml PMA, 3 Hour Activation) was 15.2 and the “Escape velocity Ave.” value ([1]; 10 ng/ml PMA, 5 Hour Activation) was 16.2. For the same compound, the “Optophoretic difference (escape velocity)” value ([1]; two lowest concentrations, 10 pg/ml and 1 pg/ml) was “no Optophoretic difference”, the “distribution of escape velocities (FIG. 31)” value ([2]; 0.01 μg/ml PMA, 6 and 9 hours post treatment) was “clear trend toward higher escape velocities over time” and the “escape velocity as compared to the untreated cells” value ([2]; 5 ug/mL PMA, 6 hours) was “significantly higher escape velocity”. For the same compound, the “Escape velocity Average” value ([2]; 1 hour of PMA activation) was 15.3 μm/sec, the “Escape velocity Average” value ([2]; 6 hours of PMA activation) was 28.0 μm/sec and the “Escape velocity Average” value ([3]; HL-60 + PMA at 72 hours (differentiated), control 11.9) was 14.0 μm/sec. The “increase in measured escape velocity as compared to the control cells” value ([3]; HL-60 cells, 72 hours) was “about 2 μm/se c”, the “Escape velocity Average” value ([4]; 1.25 ng/ml PMA) was 17.0 μm/sec and the “Escape velocity Average” value ([4]; 2.5 ng/ml PMA) was 17.0 μm/sec. For the same compound, the “Escape velocity Average” value ([4]; 5 ng/ml PMA) was 17.3 μm/sec, the “Escape velocity Average” value ([4]; .156 ng/ml PMA) was 15.8 μm/sec and the “Escape velocity Average” value ([4]; .312 ng/ml PMA) was 16.0 μm/sec. For the same compound, the “Escape velocity Average” value ([4]; .625 ng/ml PMA) was 16.6 μm/sec, the EC50 ([4]; Homo sapiens, U-937, 5 h, escape velocity, U937 cells, read-out: EC50 value of the PMA dose response curve (FIG. 53)) was ~0.625 ng/mL (≈ 1.01 nM) and the “PMA concentrations at which a significant shift in escape velocity is seen” value ([4]; U937 cells) was “exceeding 0.625 ng/ml”.
